In patent US8426408B2, “Pyrimidine inhibitors of kinases” (AbbVie Inc., priority 2009, dated 2013):

Legend:
Assay type in all cases: biochemical
Aurora B = biological target: T1, Aurora B (Homo sapiens, UniProt Q96GD4); assay: Aurora B enzyme inhibition (time-resolved fluorescence, histone H3 peptide); conditions: 1 mM ATP
T1 construct: Active Aurora B enzyme (recombinant residues 1-344)
Procedure, shortened: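 IC50s came from an exponential fit of inhibition against inhibitor concentration, with phosphorylation read as the 665/615 nm time-resolved fluorescence ratio after EDTA stop using Eu-anti-phospho-H3 and SA-APC. The 1 h reaction used Aurora B 1-344 plus GST-INCENP, biotin-histone H3 1-21 peptide and 1 mM ATP in pH 7.4 HEPES buffer.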

Aurora A = biological target: T2, Aurora A (Homo sapiens, UniProt O14965); assay: Aurora A enzyme inhibition (time-resolved fluorescence, STK substrate-2); conditions: 1 mM ATP
T2 sequence (O14965 1-403): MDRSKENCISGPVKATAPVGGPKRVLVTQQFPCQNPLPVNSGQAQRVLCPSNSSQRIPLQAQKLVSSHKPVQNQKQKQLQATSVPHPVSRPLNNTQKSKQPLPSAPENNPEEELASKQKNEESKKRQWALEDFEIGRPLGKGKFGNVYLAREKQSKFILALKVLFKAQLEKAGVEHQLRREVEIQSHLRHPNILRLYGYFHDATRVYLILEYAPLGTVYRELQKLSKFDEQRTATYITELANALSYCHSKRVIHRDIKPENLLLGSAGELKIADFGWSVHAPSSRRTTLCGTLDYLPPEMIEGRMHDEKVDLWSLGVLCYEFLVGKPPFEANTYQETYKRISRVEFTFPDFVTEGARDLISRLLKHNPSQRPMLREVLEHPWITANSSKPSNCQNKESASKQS
Procedure, shortened: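 Phosphorylation of biotinylated STK substrate-2 at 1 mM ATP, 1 h, Hepes buffer pH 7.4 (MgCl2, sodium orthovanadate, Triton X-100). After EDTA quench, 665/615 nm time-resolved fluorescence ratio read via europium anti-phospho antibody and SA-XL665; IC50 from exponential fit versus inhibitor concentration.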

KDR = KDR (Homo sapiens, UniProt P35968); assay: KDR HTRF in vitro kinase assay; design: purified enzyme (His6-KDR 789-1354, MW 63 kD); His6 (N); conditions: 1 mM ATP; read-out: KDR enzyme inhibition data (Ki)
KDR, sequence (P35968 789-1354): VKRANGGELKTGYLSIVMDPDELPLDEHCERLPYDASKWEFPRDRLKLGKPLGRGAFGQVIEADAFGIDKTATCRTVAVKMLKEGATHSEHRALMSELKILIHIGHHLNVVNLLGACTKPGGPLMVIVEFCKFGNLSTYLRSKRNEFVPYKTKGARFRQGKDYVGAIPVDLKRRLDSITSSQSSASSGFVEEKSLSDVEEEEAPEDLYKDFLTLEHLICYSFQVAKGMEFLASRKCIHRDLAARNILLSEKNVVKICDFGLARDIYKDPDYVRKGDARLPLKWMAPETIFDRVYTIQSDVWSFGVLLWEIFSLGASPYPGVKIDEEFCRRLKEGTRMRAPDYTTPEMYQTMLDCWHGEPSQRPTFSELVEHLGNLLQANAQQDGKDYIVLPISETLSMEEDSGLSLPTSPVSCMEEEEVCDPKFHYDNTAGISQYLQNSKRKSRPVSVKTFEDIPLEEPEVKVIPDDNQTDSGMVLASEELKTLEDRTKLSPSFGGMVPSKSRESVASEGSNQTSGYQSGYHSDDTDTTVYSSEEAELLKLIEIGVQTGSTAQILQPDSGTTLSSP
Procedure, shortened: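 His6-KDR 789-1354 (7 ng/well) with 0.5 μM biotinylated peptide substrate and 1 mM ATP in HEPES pH 7.1, MgCl2/MnCl2, 60 min at room temperature. EDTA-quenched, detected by streptavidin-XL-665 plus Eu-kryptate anti-phosphotyrosine HTRF after 3 h; IC50 from 620/665 nm ratio.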

Measured: Ki

T1 sequence (Q96GD4 whole entry, the tested form may be a part): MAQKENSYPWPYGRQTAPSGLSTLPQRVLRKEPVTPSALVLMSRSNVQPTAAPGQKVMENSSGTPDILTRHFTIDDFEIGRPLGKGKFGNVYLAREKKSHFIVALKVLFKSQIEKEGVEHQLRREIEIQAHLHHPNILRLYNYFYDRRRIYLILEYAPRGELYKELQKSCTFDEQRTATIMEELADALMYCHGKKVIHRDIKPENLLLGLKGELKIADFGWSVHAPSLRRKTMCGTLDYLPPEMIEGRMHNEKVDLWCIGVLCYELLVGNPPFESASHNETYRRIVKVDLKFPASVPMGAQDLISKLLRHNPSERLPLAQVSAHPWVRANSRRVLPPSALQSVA
T1 sequence (Q9NQS7 826-918 partner limits assumed): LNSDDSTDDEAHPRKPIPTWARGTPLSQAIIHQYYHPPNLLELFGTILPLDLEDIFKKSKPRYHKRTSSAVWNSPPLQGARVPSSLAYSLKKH

(1S,2R)-2-{[5-chloro-2-({1-[2-(morpholin-4-yl)ethyl]-1H-pyrazol-4-yl}amino)pyrimidin-4-yl]amino}cyclopentanecarboxamide and (1R,2S)-2-{[5-chloro-2-({1-[2-(morpholin-4-yl)ethyl]-1H-pyrazol-4-yl}amino)pyrimidin-4-yl]amino}cyclopentanecarboxamide [Example 137]
< 100 nM: all assays above

CS(=O)(=O)CCn1cc(Nc2ncc(Br)c(N[C@H]3[C@@H](C(N)=O)[C@@H]4C=C[C@H]3C4)n2)cn1 [Example 122, (1S,2S,3R,4R)-3-{[5-bromo-2-({1-[2-(methylsulfonyl)ethyl]-1H-pyrazol-4-yl}amino)pyrimidin-4-yl]amino}bicyclo[2.2.1]hept-5-ene-2-carboxamide]
< 100 nM: all assays above

C[C@@H](O)Cn1cc(Nc2ncc(Cl)c(N[C@H]3[C@@H](C(N)=O)[C@@H]4C=C[C@H]3C4)n2)cn1 [Example 105, (1S,2S,3R,4R)-3-{[5-chloro-2-({1-[(2R)-2-hydroxypropyl]-1H-pyrazol-4-yl}amino)pyrimidin-4-yl]amino}bicyclo[2.2.1]hept-5-ene-2-carboxamide]
< 100 nM: all assays above

COc1cccc(CCn2cc(Nc3ncc(Br)c(N[C@H]4[C@@H](C(N)=O)[C@@H]5C=C[C@H]4C5)n3)cn2)c1 [Example 160, (1S,2S,3R,4R)-3-{[5-bromo-2-({1-[2-(3-methoxyphenyl)ethyl]-1H-pyrazol-4-yl}amino)pyrimidin-4-yl]amino}bicyclo[2.2.1]hept-5-ene-2-carboxamide]
< 100 nM: all assays above

NC(=O)[C@@H]1[C@H](Nc2nc(Nc3cnn(Cc4ccccc4)c3)ncc2Br)[C@H]2C=C[C@@H]1C2 [Example 149, (1S,2S,3R,4R)-3-({2-[(1-benzyl-1H-pyrazol-4-yl)amino]-5-bromopyrimidin-4-yl}amino)bicyclo[2.2.1]hept-5-ene-2-carboxamide]
< 100 nM: all assays above

COc1cccc(Cn2cc(Nc3ncc(Cl)c(N[C@H]4[C@@H](C(N)=O)[C@@H]5C=C[C@H]4C5)n3)cn2)c1 [Example 155, (1S,2S,3R,4R)-3-[(5-chloro-2-{[1-(3-methoxybenzyl)-1H-pyrazol-4-yl]amino}pyrimidin-4-yl)amino]bicyclo[2.2.1]hept-5-ene-2-carboxamide]
< 100 nM: all assays above

Cc1nn(C)cc1Nc1ncc(Cl)c(N[C@H]2[C@@H](C(N)=O)[C@@H]3C=C[C@H]2C3)n1 [Example 134, (1S,2S,3R,4R)-3-({5-chloro-2-[(1,3-dimethyl-1H-pyrazol-4-yl)amino]pyrimidin-4-yl}amino)bicyclo[2.2.1]hept-5-ene-2-carboxamide]
< 100 nM: all assays above

CC(C)CCn1cc(Nc2ncc(Br)c(N[C@H]3[C@@H](C(N)=O)[C@@H]4C=C[C@H]3C4)n2)cn1 [Example 111, (1S,2S,3R,4R)-3-[(5-bromo-2-{[1-(3-methylbutyl)-1H-pyrazol-4-yl]amino}pyrimidin-4-yl)amino]bicyclo[2.2.1]hept-5-ene-2-carboxamide]
< 100 nM: all assays above

Cn1cc(Nc2ncc([N+](=O)[O-])c(N[C@H]3[C@@H](C(N)=O)[C@@H]4C=C[C@H]3C4)n2)cn1 [Example 139, (1S,2S,3R,4R)-3-({2-[(1-methyl-1H-pyrazol-4-yl)amino]-5-nitropyrimidin-4-yl}amino)bicyclo[2.2.1]hept-5-ene-2-carboxamide]
< 100 nM: all assays above

Cn1cc(Nc2ncc(Cl)c(N[C@H]3[C@@H](C(N)=O)C[C@H]4C[C@@H]3C4(C)C)n2)cn1 [Example 165, (1R,2R,3S,5R)-2-({5-chloro-2-[(1-methyl-1H-pyrazol-4-yl)amino]pyrimidin-4-yl}amino)-6,6-dimethylbicyclo[3.1.1]heptane-3-carboxamide]
< 100 nM: all assays above

CCn1cc(Nc2ncc(Cl)c(NC3C4CCC(O4)C3C(N)=O)n2)cn1 (racemic) [Example 142, (1S,2R,3S,4R)-3-({5-chloro-2-[(1-ethyl-1H-pyrazol-4-yl)amino]pyrimidin-4-yl}amino)-7-oxabicyclo[2.2.1]heptane-2-carboxamide and (1R,2S,3R,4S)-3-({5-chloro-2-[(1-ethyl-1H-pyrazol-4-yl)amino]pyrimidin-4-yl}amino)-7-oxabicyclo[2.2.1]heptane-2-carboxamide]
< 100 nM: all assays above

Cn1cc(Nc2ncc(Br)c(Nc3ccccc3C3(O)CCC3)n2)cn1 [Example 132, 1-[2-({5-bromo-2-[(1-methyl-1H-pyrazol-4-yl)amino]pyrimidin-4-yl}amino)phenyl]cyclobutanol]
< 100 nM: all assays above

CCn1cc(Nc2ncc(C(F)(F)F)c(N[C@H]3[C@@H](C(N)=O)C[C@H]4C[C@@H]3C4(C)C)n2)cn1 [Example 168, (1R,2R,3S,5R)-2-({2-[(1-ethyl-1H-pyrazol-4-yl)amino]-5-(trifluoromethyl)pyrimidin-4-yl}amino)-6,6-dimethylbicyclo[3.1.1]heptane-3-carboxamide]
< 100 nM: all assays above

CC(=O)N1CCC(n2cc(Nc3ncc(Cl)c(N[C@H]4[C@@H](C(N)=O)[C@@H]5C=C[C@H]4C5)n3)cn2)CC1 [Example 92, (1S,2S,3R,4R)-3-[(2-{[1-(1-acetylpiperidin-4-yl)-1H-pyrazol-4-yl]amino}-5-chloropyrimidin-4-yl)amino]bicyclo[2.2.1]hept-5-ene-2-carboxamide]
< 100 nM: all assays above

COCCOCCn1cc(Nc2ncc(Cl)c(N[C@H]3[C@@H](C(N)=O)[C@@H]4C=C[C@H]3C4)n2)cn1 [Example 100, (1S,2S,3R,4R)-3-{[5-chloro-2-({1-[2-(2-methoxyethoxy)ethyl]-1H-pyrazol-4-yl}amino)pyrimidin-4-yl]amino}bicyclo[2.2.1]hept-5-ene-2-carboxamide]
< 100 nM: all assays above

CC(C)n1cc(Nc2ncc(Br)c(N[C@H]3[C@@H](C(N)=O)[C@@H]4C=C[C@H]3C4)n2)cn1 [Example 112, (1S,2S,3R,4R)-3-({5-bromo-2-[(1-isopropyl-1H-pyrazol-4-yl)amino]pyrimidin-4-yl}amino)bicyclo[2.2.1]hept-5-ene-2-carboxamide]
< 100 nM: all assays above

CCn1cc(Nc2ncc(C(F)(F)F)c(N[C@@H]3[C@H](C(N)=O)[C@H]4C=C[C@@H]3C4)n2)cn1.CCn1cc(Nc2ncc(C(F)(F)F)c(N[C@H]3[C@@H](C(N)=O)[C@@H]4C=C[C@H]3C4)n2)cn1 (mixture of isomers) [Example 22, (1S,2S,3R,4R)-3-{[2-[(1-ethyl-1H-pyrazol-4-yl)amino]-5-(trifluoromethyl)pyrimidin-4-yl]amino}bicyclo[2.2.1]hept-5-ene-2-carboxamide and (1R,2R,3S,4S)-3-{[2-[(1-ethyl-1H-pyrazol-4-yl)amino]-5-(trifluoromethyl)pyrimidin-4-yl]amino}bicyclo[2.2.1]hept-5-ene-2-carboxamide]
< 100 nM: all assays above
